Data reported in patent publication US7037917B2, “HIV replication inhibiting pyrimidines” (Janssen Pharmaceutica, N.V., priority 1998, dated 2006).
Counter-ions that a name gives are not always drawn. Like-named read-outs stand apart in the source and are kept apart here.

Assays:
[1] = cytotoxicity in mock-infected MT-4 cells (MTT); format: cell-based; conditions: human, mock-infected MT-4 cells; concentration reducing absorbance of mock-infected MT-4 control by 50%; MTT
mock-infected MT-4 cells = experiment: cytotoxicity in mock-infected MT-4 cells (MTT); format: cell-based
HIV-1 [2] = test system: HIV-1
Method: (§1) A rapid, sensitive and automated assay procedure was used for the in vitro evaluation of anti-HIV agents. […] Inhibition of the HIV-induced cytopathic effect was used as the end point. […] The percent protection achieved by the compound in HIV-infected cells was calculated by the following formula:
(§2) [formula] whereby (ODT)HIV is the optical density measured with a given concentration of the test compound in HIV-infected cells; (ODC)HIV is the optical density measured for the control untreated HIV-infected cells; (ODC)MOCK is the optical density measured for the control untreated mock-infected cells; all optical density values were determined at 540 nm. […] The ratio of CC50 to IC50 was defined as the selectivity index (SI).

HIV-1 [3] = experiment: microbe, parasite or virus in culture; conditions: Human immunodeficiency virus 1, MT4
Method: as §1, §2

melting point | Compound | CC50 [1] | CC50 (mock-infected MT-4 cells) | further results
208 to 210 °C | Cc1cc(C#N)cc(C)c1Oc1nc(Nc2ccc(C#N)cc2)nc(NCCN2CCCC2)c1Br.Cl |  |  | 
224 to 225 °C | Cc1cc(C)c(Nc2nc(Nc3ccc(C#N)cc3)ncc2N)c(C)c1 (as salt: trifluoroacetate) [Compound 51, 4-[[5-amino-4-[(2,4,6-trimethylphenyl)amino]-2-pyrimidinyl]amino]benzonitrile] |  |  | 
237 to 242 °C | C=Cc1cnc(Nc2ccc(C#N)cc2)nc1Nc1c(C)cc(C)cc1C (as salt: trifluoroacetate) [Compound 54, 4-[[5-ethenyl-4-[(2,4,6-trimethylphenyl)amino]-2-pyrimidinyl]amino]benzonitrile] |  |  | 
 | Cc1cc(C)c(Nc2ncc(Cl)c(Nc3ccc(C#N)cc3)n2)c(C)c1 [Compound 1, 4-[[5-chloro-2-[(2,4,6-trimethylphenyl)amino]-4-pyrimidinyl]amino]benzonitrile] | 10.9 µM |  | 
 | Cc1cc(C)c(Nc2ncc(Br)c(Nc3ccc(C#N)cc3)n2)c(C)c1 [Compound 2, 4-[[5-bromo-2-[(2,4,6-trimethylphenyl)amino]-4-pyrimidinyl]amino]benzonitrile] | 82.6 µM |  | 
 | Cc1cc(C)c(Nc2nc(Nc3ccc(C#N)cc3)ncc2Br)c(C)c1 [Compound 3, 4-[[5-bromo-4-[(2,4,6-trimethylphenyl)amino]-2-pyrimidinyl]amino]benzonitrile] | 4.4 µM |  | 
 | Cc1cc(C)c(Nc2nc(Nc3ccc(C#N)cc3)nc(N)c2Cl)c(C)c1.O=C(O)C(F)(F)F [Compound 4, 4-[[4-amino-5-chloro-6-[(2,4,6-trimethylphenyl)amino]-2-pyrimidinyl]amino]benzonitrile trifluoroacetate (1:1)] | 10 µM |  | 
 | Cc1cc(C)c(Nc2nc(Nc3ccc(C#N)cc3)ncc2Cl)c(C)c1 [Compound 5, 4-[[5-chloro-4-[(2,4,6-trimethylphenyl)amino]-2-pyrimidinyl]amino]benzonitrile] | 0.4 µM |  | 
 | Cc1cc(C)c(Oc2nc(Nc3ccc(C#N)cc3)ncc2Cl)c(C)c1 [Compound 6, 4-[[5-chloro-4-(2,4,6-trimethylphenoxy)-2-pyrimidinyl]amino]benzonitrile] | > 100 µM |  | 
 | Cc1cc(C)c(Sc2nc(Nc3ccc(C#N)cc3)ncc2Cl)c(C)c1 [Compound 7] |  | > 100 µM | 
 | Cc1cc(Br)cc(C)c1Oc1nc(Nc2ccc(C#N)cc2)ncc1Cl [Compound 8] |  | > 100 µM | 
 | Cc1cc(Br)cc(C)c1Nc1nc(Nc2ccc(C#N)cc2)ncc1Cl [Compound 9] |  | 1.2 µM | 
 | Cc1cc(Br)c(Nc2nc(Nc3ccc(C#N)cc3)ncc2Cl)c(Br)c1 [Compound 10, 4-[[5-chloro-4-[(2,6-dibromo-4-methylphenyl)amino]-2-pyrimidinyl]amino]benzonitrile] | 0.4 µM |  | 
 | N#Cc1ccc(Nc2ncc(Cl)c(Nc3c(F)cc(Br)cc3Br)n2)cc1 [Compound 11] |  | 0.4 µM | 
 | Cc1cc(C(C)(C)C)cc(C)c1Nc1nc(Nc2ccc(C#N)cc2)ncc1Cl [Compound 12] |  | 48.5 µM | 
 | Cc1cc(C#N)cc(C)c1Nc1nc(Nc2ccc(C#N)cc2)ncc1Cl [Compound 13] |  | 0.4 µM | 

melting point | Compound | CC50 [1] | CC50 (mock-infected MT-4 cells) | further results
 | Cc1cc(Br)cc(Cl)c1Oc1nc(Nc2ccc(C#N)cc2)ncc1Cl [Compound 15] |  | > 100 µM | 
 | Cc1cc(Cl)cc(C)c1Oc1nc(Nc2ccc(C#N)cc2)ncc1Cl [Compound 16] |  | > 100 µM | 
 | Cc1cc(C#N)cc(C)c1Oc1nc(Nc2ccc(C#N)cc2)ncc1Br [Compound 17, 4-[[5-bromo-4-(4-cyano-2,6-dimethylphenoxy)-2-pyrimidinyl]amino]benzonitrile] | > 10 µM |  | 
 | Cc1cc(C#N)cc(C)c1Oc1nc(Nc2ccc(C#N)cc2)ncc1Cl [Compound 18] |  | > 10 µM | 
220 to 221 °C | Cc1cc(C)c(Nc2nc(Nc3ccc(C#N)cc3)nc(Cl)c2Br)c(C)c1 [Compound 41, 4-[[5-bromo-4-chloro-6-[(2,4,6-trimethylphenyl)amino]-2-pyrimidinyl]amino]benzonitrile] |  |  | 
259 to 260 °C | Cc1cc(C#N)cc(C)c1Nc1nc(Nc2ccc(C#N)cc2)nc(Cl)c1Br [Compound 42, 4-[[5-bromo-4-chloro-6-[(4-cyano-2,6-dimethylphenyl)amino]-2-pyrimidinyl]amino]benzonitrile] |  |  | 
260 to 262 °C | Cc1cc(C#N)cc(C)c1Oc1nc(Nc2ccc(C#N)cc2)nc(C)c1Br [Compound 44, 4-[[5-bromo-4-(4-cyano-2,6-dimethylphenoxy)-6-methyl-2-pyrimidinyl]amino]benzonitrile] |  |  | 
277 to 280 °C | Cc1cc(C#N)cc(C)c1Nc1nc(Nc2ccc(C#N)cc2)ncc1Br [Compound 45, 4-[[5-bromo-6-[(4-cyano-2,6-dimethylphenyl)amino]-2-pyrimidinyl]amino]benzonitrile] |  |  | 
 | Cc1cc(C#N)cc(C)c1Oc1nc(Nc2ccc(C#N)cc2)nc(N)c1Br [Compound 46, 4-[[4-amino-5-bromo-6-(4-cyano-2,6-dimethylphenyloxy)-2-pyrimidinyl]amino]benzonitrile] | > 200 µM |  | 
185 to 186 °C | CONc1nc(Nc2ccc(C#N)cc2)nc(Oc2c(C)cc(C#N)cc2C)c1Br [Compound 48, 4-[[5-bromo-4-(4-cyano-2,6-dimethylphenoxy)-6-(methoxyamino)-2-pyrimidinyl]amino]benzonitrile] |  |  | 
> 300 °C | Cc1cc(C#N)cc(C)c1Oc1nc(Nc2ccc(C#N)cc2)ncc1N [Compound 50, 4-[[5-amino-4-(4-cyano-2,6-dimethylphenoxy)-2-pyrimidinyl]amino]benzonitrile] |  |  | 
165 to 175 °C | C#Cc1cnc(Nc2ccc(C#N)cc2)nc1Nc1c(C)cc(C)cc1C [Compound 52, 4-[[5-ethynyl-4-[(2,4,6-trimethylphenyl)amino]-2-pyrimidinyl]amino]benzonitrile] |  |  | 
209 to 214 °C | Cc1cc(C)c(Nc2nc(Nc3ccc(C#N)cc3)ncc2-c2ccccc2)c(C)c1 [Compound 53, 4-[[5-phenyl-4-[(2,4,6-trimethylphenyl)amino]-2-pyrimidinyl]amino]benzonitrile] |  |  | 
 | Cc1cc(C#N)cc(C)c1Oc1nc(N(COC(=O)C(C)(C)C)c2ccc(C#N)cc2)ncc1Br [Compound 60] |  | 74.5 µM | IC50 (HIV-1 [2]; dose achieving 50% protection of HIV-infected MT-4 cells against cytopathic effect, MTT, OD 540 nm): 0.002 µM
 | COC(=O)COCC(=O)N(c1ccc(C#N)cc1)c1ncc(Br)c(Oc2c(C)cc(C#N)cc2C)n1 [Compound 61] | > 100 µM |  | SI (selectivity index) (HIV-1 [2]; ratio of CC50 to IC50): >52631; IC50 (HIV-1 [3]): 0.002 µM
